One data set concerns cells. The data set can be described thus: Cytocompatibility of UV absorber HMAP (cell viability). The data set is classed as cell-based. The conditions noted are these: all the tested concentrations.
The test system of data set [1] is NIH 3T3 cell-laden bilayer constructs (cell-generated forces, actin polymerization). In words: Cytochalasin D treatment of cell-laden bilayer constructs. The format is cell-based. From the text: To accomplish bilayer printing, two syringes were loaded into the 3D printer: the first contained only reconstituted OMA microgels (cell-free bioink); the second contained the cell-laden bioink. For bilayer rectangles, a 25 mm×25 mm×0.2 mm square was printed with the cell-free bioink. Three cell-laden rectangles measuring 18 mm×4 mm×0.6 mm were then printed directly on top of the cell-free square, spaced 4 mm apart. After crosslinking constructs with UV light, the cell-free layer was cut with a razor blade to match the geometry of the cell-laden rectangles, forming bilayer rectangles. Dead controls were generated by incubating cells in acetone for 30 minutes before forming the cell-laden bioink.
To further illustrate the role of cell-generated forces in the observed spatiotemporal changes, the effect of Cytochalasin D, a known inhibitor of actin polymerization, was studied. Cytochalasin D was weighed and dissolved in sterile dimethyl sulfoxide (DMSO) at a concentration of 5 mM and stored at 4° C. Bilayer rectangles were printed and cultured in culture media supplemented with 0.1% v/v Cytochalasin D, resulting in a final Cytochalasin D concentration of 5 μM. Half of the media was replaced every day, with fresh Cytochalasin D added at 0.1% v/v each time. To ensure that any change in behavior is being caused by Cytochalasin D and not DMSO, four bilayer rectangles were cultured in culture media with 0.1% v/v DMSO. These media conditions were also compared to bilayer rectangles cultured in normal culture media.
After culture duration was complete, samples were fixed overnight in 10% neutral buffered formalin at room temperature. Samples were then dehydrated through one-hour incubations in 70% ethanol, 95% ethanol, 100% ethanol, 1:1 mixture of ethanol and xylenes, and two separate 100% xylenes. Samples were then submerged in molten paraffin for at least 24 hours before being embedded in paraffin blocks. 5-μm sections were obtained from blocks using a microtome and mounted on microscope slides. Hematoxilyn and eosin (H&E) sections were stained with hematoxilyn for 2 minutes followed by counterstaining with eosin for 30 seconds. Safrananin O and fast green sections were stained with 0.1% Safranin O for 5 minutes followed by counterstaining with 0.05% fast green for 1 minute. Alcian blue and nuclear fast red sections were stained with alcian blue ([…]) for 30 minutes followed by counterstaining with nuclear fast red for 5 minutes.
Dissection microscope images were used to measure bending angle as described in FIG. 72. Briefly, a circle with crosshairs was superimposed on each image using Microsoft Powerpoint. […] Using this method, a construct that has bent into a half circle is measured as 180 degrees, while a construct whose ends are touching is measured as 360 degrees. […]

Consider `CC(=O)c1ccc(O)c(C)c1` [HMAP, 4′-hydroxy-3′-methylacetophenone], for which the cell viability (as a rule, a read-out of living cells in per cent, often relative to untreated cells) in the data set with cells was more than 90%.

Consider `C=C1[C@@H](C)[C@H]2[C@H](Cc3ccccc3)NC(=O)[C@]23[C@H](OC(C)=O)/C=C/[C@@](C)(O)C(=O)[C@@H](C)C/C=C/[C@H]3[C@@H]1O` [Cytochalasin D], for which the “macroscopic shape change of bilayer constructs” value in data set [1] (5 μM in growth medium, over duration of culture (14 days)) is on record as “no macroscopic changes in shape”. For the same compound, in data set [1] (5 μM, day 14), the “cell death (live/dead)” value was “no sign of cell death”, the “cell morphology (live/dead images)” value is given as “more rounded” and the “fibrous border formation (H&E histology)” value is “unable to form this fibrous border”.

The record behind these values is patent publication US20250186656A1, “SHAPE MORPHING HYDROGEL ACTUATORS AND CONSTRUCTS” (Case Western Reserve University, priority 2022, published 2025).
